The source made the active and inactive calls. No cut-off for these calls is given here.
How the values were obtained:
HCC827 [1] = assay: Inhibition of cell invasion in human HCC827 cells at 0.25 to 2 uM incubated for 12 hrs by Transwell assay; format: functional, cell-based; conditions: dose 0.25-2 µM
[2] = MRT in ICR mouse at 10 mg/kg, po by LC-MS/MS analysis; format: ADME, organism-based; conditions: in vivo
PC-9 [3] = assay: Induction of interaction between RNF149/EGFR mutant in human PC-9 cells assessed as disruption of EGFR mutant/HSP90 complex formation at 2 uM measured after 6 hrs by co-immunoprecipitation analysis; format: cell-based
[4] = molecular target: E3 ubiquitin-protein ligase RNF149/Epidermal growth factor receptor (Homo sapiens, UniProt P00533+Q8NC42); assay: (§1) SiHyT-mediated degrader activity at RNF149/EGFR mutant in human HCC827 cells assessed as induction of EGFR degradation cells incubated in serum-free media for 8 hrs followed by incubation with compound for 24 hrs by western blot analysis; format: cell-based
Chain of E3 ubiquitin-protein ligase RNF149/Epidermal growth factor receptor (P00533 whole entry, looked up, change not shown): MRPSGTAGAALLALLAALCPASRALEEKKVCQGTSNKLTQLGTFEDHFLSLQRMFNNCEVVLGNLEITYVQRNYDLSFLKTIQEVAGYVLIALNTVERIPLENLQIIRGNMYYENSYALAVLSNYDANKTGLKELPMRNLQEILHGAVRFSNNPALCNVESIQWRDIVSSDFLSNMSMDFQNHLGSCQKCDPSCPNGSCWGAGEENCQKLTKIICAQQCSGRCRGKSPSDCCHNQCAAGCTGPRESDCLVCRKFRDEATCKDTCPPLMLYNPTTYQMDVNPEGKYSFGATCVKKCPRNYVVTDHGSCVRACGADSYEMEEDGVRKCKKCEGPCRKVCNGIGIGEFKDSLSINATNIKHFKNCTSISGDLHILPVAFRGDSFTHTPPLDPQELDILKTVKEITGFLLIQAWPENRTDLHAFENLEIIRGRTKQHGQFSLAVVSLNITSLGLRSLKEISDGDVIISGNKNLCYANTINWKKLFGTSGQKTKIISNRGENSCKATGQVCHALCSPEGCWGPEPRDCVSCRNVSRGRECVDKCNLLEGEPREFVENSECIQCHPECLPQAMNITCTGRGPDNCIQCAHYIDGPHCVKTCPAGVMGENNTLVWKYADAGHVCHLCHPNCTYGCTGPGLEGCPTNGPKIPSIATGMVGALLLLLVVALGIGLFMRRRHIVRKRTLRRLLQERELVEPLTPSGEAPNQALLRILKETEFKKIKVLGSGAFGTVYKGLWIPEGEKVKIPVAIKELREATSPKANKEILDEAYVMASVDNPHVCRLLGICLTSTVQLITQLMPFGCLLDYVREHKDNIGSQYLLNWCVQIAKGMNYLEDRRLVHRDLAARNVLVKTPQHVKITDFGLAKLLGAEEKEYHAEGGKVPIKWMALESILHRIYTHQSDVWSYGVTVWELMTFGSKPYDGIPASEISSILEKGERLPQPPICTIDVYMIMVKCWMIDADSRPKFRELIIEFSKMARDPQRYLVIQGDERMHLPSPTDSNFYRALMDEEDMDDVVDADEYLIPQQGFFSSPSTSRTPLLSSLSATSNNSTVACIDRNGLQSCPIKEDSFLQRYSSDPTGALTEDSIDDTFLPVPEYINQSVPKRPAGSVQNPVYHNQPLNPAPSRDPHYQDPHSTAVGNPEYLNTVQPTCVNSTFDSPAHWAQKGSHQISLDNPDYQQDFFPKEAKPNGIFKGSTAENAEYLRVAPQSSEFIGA
Chain of E3 ubiquitin-protein ligase RNF149/Epidermal growth factor receptor (Q8NC42 whole entry, looked up, change not shown): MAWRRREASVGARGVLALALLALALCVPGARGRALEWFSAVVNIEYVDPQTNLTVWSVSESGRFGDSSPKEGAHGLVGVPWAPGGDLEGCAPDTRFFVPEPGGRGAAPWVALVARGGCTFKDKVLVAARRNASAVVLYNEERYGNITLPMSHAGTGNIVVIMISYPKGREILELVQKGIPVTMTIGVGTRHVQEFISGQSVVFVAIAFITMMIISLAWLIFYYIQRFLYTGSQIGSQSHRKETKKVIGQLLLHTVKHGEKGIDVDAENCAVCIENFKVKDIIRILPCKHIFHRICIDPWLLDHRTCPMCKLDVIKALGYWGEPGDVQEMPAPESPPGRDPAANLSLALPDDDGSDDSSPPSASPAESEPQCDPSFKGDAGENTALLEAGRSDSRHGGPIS

[5] = tested on: E3 ubiquitin-protein ligase RNF149/Epidermal growth factor receptor (Homo sapiens), P00533+Q8NC42 [UNDEFINED MUTATION]; assay: as §1; format: cell-based
Chain of E3 ubiquitin-protein ligase RNF149/Epidermal growth factor receptor (Homo sapiens), P00533+Q8NC42 [UNDEFINED MUTATION] (P00533 whole entry, looked up, change not shown): as the sequence (P00533 whole entry, looked up, change not shown) above
Chain of E3 ubiquitin-protein ligase RNF149/Epidermal growth factor receptor (Homo sapiens), P00533+Q8NC42 [UNDEFINED MUTATION] (Q8NC42 whole entry, looked up, change not shown): as the sequence (Q8NC42 whole entry, looked up, change not shown) above

[6] = Half life of the compound in human liver microsomes at 1 uM in presence of NADPH by LC-MS/MS analysis; format: ADME, Microsome
[7] = Tmax in ICR mouse at 10 mg/kg, po by LC-MS/MS analysis; format: ADME, organism-based; conditions: in vivo
[8] = Cmax in ICR mouse at 10 mg/kg, po by LC-MS/MS analysis; format: ADME, organism-based; conditions: in vivo
[9] = tested on: E3 ubiquitin-protein ligase RNF149/Epidermal growth factor receptor (Homo sapiens), P00533+Q8NC42 [UNDEFINED MUTATION]; assay: SiHyT-mediated degrader activity at RNF149/EGFR mutant in human HCC827 cells assessed as induction of EGFR degradation by measuring decrease in EGFR expression level at 1 uM pretreated with lysosome inhibitor, 3-MA for 4 hrs followed by incubation with compound for 24 hrs by western blot analysis; format: cell-based
[10] = tested on: E3 ubiquitin-protein ligase RNF149/Epidermal growth factor receptor (Homo sapiens), P00533+Q8NC42 [UNDEFINED MUTATION]; assay: SiHyT-mediated degrader activity at RNF149/EGFR mutant in human HCC827 cells assessed as induction of EGFR degradation at 1 uM cells incubated in serum-free media for 8 hrs followed by incubation with compound for 24 hrs by western blot analysis; format: cell-based
PC-9 [11] = assay: SiHyT-mediated degrader activity at RNF149/EGFR mutant in human PC-9 cells assessed as induction of EGFR degradation by measuring decrease in EGFR level at 2 uM measured after 24 hrs by western blot analysis; format: cell-based
[12] = Tmax in ICR mouse at 1 mg/kg, iv by LC-MS/MS analysis; format: ADME, organism-based; conditions: in vivo
PC-9 [13] = assay: Induction of interaction between RNF149/EGFR mutant in human PC-9 cells measured after 6 hrs by co-immunoprecipitation analysis; format: cell-based
L02 = assay: Cytotoxicity against human LO2 cells assessed as reduction in cell viability; format: toxicity, cell-based
[14] = molecular target: Epidermal growth factor receptor (Homo sapiens) (UniProt P00533); assay: Induction of EGFR mutant degradation in human PC-9 cells transfected with RNF149 shRNA at 1 uM by western blot analysis; format: cell-based
Chain of Epidermal growth factor receptor (Homo sapiens) (P00533 whole entry): as the sequence (P00533 whole entry, looked up, change not shown) above

PC-9 [15] = assay: SiHyT-mediated degrader activity at RNF149/EGFR mutant in human PC-9 cells assessed as increase in EGFR ubiquitination level at 2 uM pretreated with MG132 for 2 hrs followed by incubation with compound for 9 hrs by immunoprecipitation based western blot analysis; format: cell-based
[16] = Half life in ICR mouse at 10 mg/kg, po by LC-MS/MS analysis; format: ADME, organism-based; conditions: in vivo
HCC827 [17] = assay: Antiproliferative activity against human HCC827 cells assessed as decrease in cell survival measured after 72 hrs by CCK-8 assay; format: functional, cell-based; conditions: HCC827, 72 h
Mus musculus = assay: In vivo induction of EGFR mutant degradation in tumor of mouse xenografted with human PC-9 cells assessed as decrease in EGFR expression at 10 mg/kg, po measured after 6 to 48 hrs by immunoblot analysis; format: functional, organism-based; conditions: time 6-48 hrs
[18] = tested on: E3 ubiquitin-protein ligase RNF149/Epidermal growth factor receptor (Homo sapiens), P00533+Q8NC42 [UNDEFINED MUTATION]; assay: SiHyT-mediated degrader activity at RNF149/EGFR mutant in human HCC827 cells assessed as induction of EGFR degradation by measuring decrease in half-time of EGFR at 1 uM incubated for 6 to 24 hrs in presence of protein synthesis inhibitor, cycloheximide by western blot analysis; format: cell-based; conditions: time 6-24 hrs
PC-9 [19] = assay: Inhibition of cell invasion in human PC-9 cells at 0.5 to 1 uM incubated for 24 hrs by wound healing analysis; format: functional, cell-based; conditions: dose 0.5-1 µM
HCC827 [20] = assay: Induction of apoptosis in human HCC827 cells at 0.5 to 2 uM incubated for 48 hrs by AnnexinV-FITC/PI staining based flow cytometry; format: functional, cell-based; conditions: dose 0.5-2 µM
[21] = tested on: E3 ubiquitin-protein ligase RNF149/Epidermal growth factor receptor (Homo sapiens), P00533+Q8NC42 [UNDEFINED MUTATION]; assay: SiHyT-mediated degrader activity at RNF149/EGFR mutant in human HCC827 cels assessed as induction of EGFR degradation at 0.1 uM cells incubated in serum-free media for 8 hrs followed by incubation with compound for 24 hrs by western blot analysis; format: cell-based

MRT [2]: 2.57 h
DC50 [4]: 750 nM
Activity [5]: Dose-dependent-effect
half-life at 1 µM [6]: > 1 h
Tmax [7]: 1 h
Cmax [8]: 683 ng/mL
Activity [9]: Active
Activity [10]: 87.2%
Tmax [12]: 4.8 min
Activity [14]: inactive
half-life [16]: 1.29 h
Activity [18]: Active
Activity [21]: 54.6%
SMILES: COc1cc2ncnc(Nc3ccc(F)c(Cl)c3)c2cc1OCCn1cc(CCCO[Si](c2ccccc2)(c2ccccc2)C(C)(C)C)nn1
inhibition (HCC827 [1]): Active
Activity (PC-9 [3]): Active
Activity (PC-9 [11]): Active
Activity (PC-9 [13]): Active
Activity (L02): Toxic
Activity (PC-9 [15]): Active
IC50 (HCC827 [17]): 70 nM
Activity (Mus musculus): Active
inhibition (PC-9 [19]): Active
Activity (HCC827 [20]): Dose-dependent-effect

Source: ChEMBL document CHEMBL6074674, “Development of Novel Silicon-Based Hydrophobic Tags (SiHyT) for Targeted Proteins Degradation” (J Med Chem, 2024)
